Measurements from patent US20130005764A1, “QUININE DOSAGE FORMS AND METHODS OF USE THEREOF” (priority 2006, published 2013).
Structures can show the parent of a compound that is named as a salt. Where two headings read alike, the source gives them in different places.

Columns and labels:
[1] = for AUC0-INF / AUC0-t / Cmax: 260 mg, 1 capsule (dose adjusted to 1.25 × 324 mg)
[2] = in vivo
[3] = human, in vivo, po
[4] = in vivo; remark: listed apart in the source
[5] = Mean plasma quinine concentrations over 24 hours following a single oral dose of quinine sulfate (Example 1, Studies 1 and 2); type: in vivo, human; conditions: Study 2 C: single oral 324 mg capsule, fasting; 0 hours
[6] = 2 × 324 mg
[7] = Non-transformed data, least squares mean; 324 mg, fasted conditions
[8] = dosing an amount between 324 mg to 658 mg, fasted
[9] = Ln-transformed data, geometric mean, fasted
[10] = Non-transformed data, least squares mean, fasted
[11] = Ln-transformed data, geometric mean, fasted conditions
[12] = Non-transformed data, least squares mean, fasted conditions
[13] = Non-transformed data, least squares mean, fed conditions

- AUC0-INF [1, 9]: 32072.92 ng·h/mL
- AUC0-t [1, 9]: 30019.28 ng·h/mL
- Cmax [1, 9]: 2251.55 ng/mL
- AUC0-INF [1, 10]: 33582.46 ng·h/mL
- AUC0-t [1, 10]: 31285.26 ng·h/mL
- Cmax [1, 10]: 2310.90 ng/mL
- Tmax ([1]; Non-transformed data, least squares mean, 324 mg, 1 capsule, fasted): 2.75
- pharmacokinetic profile proportionality to dose ([1]; dose amount between 280 mg to 324 mg): linearly proportional
- Tmax ([2]; human, 648 mg): 2.8 h
- dose proportionality (Cmax) [2]: nonlinear dose proportionality
- Tmax ([4]; human, 324 mg): 2.6 h
- Cmax and AUC0-t between the fed and fasted states ([4]; po): substantially unchanged
- Mean Plasma Concentration [5]: 0; ng/ml
- AUC0-INF [6, 11]: 50005.77 ng·h/mL
- AUC0-t [6, 11]: 47258.21 ng·h/mL
- Cmax [6, 11]: 3197.25 ng/mL
- Cmax ([6]; Ln-transformed data, geometric mean, fed conditions): 3332.41 ng/mL
- AUC0-INF [6, 12]: 52643.14 ng·h/mL
- AUC0-t [6, 12]: 49484.64 ng·h/mL
- Cmax [6, 12]: 3293.84 ng/mL
- Tmax [6, 12]: 2.68
- AUC0-INF [6, 13]: 54409.12 ng·h/mL
- AUC0-t [6, 13]: 51228.07 ng·h/mL
- kelim [7]: 0.0564
- pharmacokinetic profile proportionality to dose [8]: not linearly proportional
SMILES: C=C[C@H]1C[N@@]2CC[C@H]1C[C@H]2[C@H](O)c1ccnc2ccc(OC)cc12 [Quinine Sulfate, cinchonan-9-ol, 6′-methoxy-, (8α,9R)-, sulfate (2:1)]
- mean±SD maximum QTc change from baseline around the quinine Tmax ([3]; 324 mg): 0.01 ± 0.019 s
- mean±SD maximum QTc change from baseline around the quinine Tmax ([3]; 648 mg): 0.012 ± 0.018 s
